The values that follow come from ChEMBL document CHEMBL1147813, “Design, molecular modeling, synthesis, and anti-HIV-1 activity of new indolyl aryl sulfones. Novel derivatives of the indole-2-carboxamide” (J Med Chem, 2006).

The term EC50 denotes the concentration that produces a half-maximal response.

The subject of test [1] is Human immunodeficiency virus. As to the kind of experiment: Activity against HIV-AB1 assessed by inhibition of p24 production in human lymphocytes. The note with it: Human immunodeficiency virus 1. It counts as functional, organism-based.
The subject of test [2] is Human immunodeficiency virus 1. Briefly: Antiviral activity against HIV1 […] in human macrophages. The format is functional, organism-based.
Test [3] relates to Human immunodeficiency virus. Briefly: Activity against HIV-112 assessed by inhibition of p24 production in human lymphocytes. The format is functional, organism-based. To be noted: Human immunodeficiency virus 1.
The subject of test [4] is Human immunodeficiency virus 1. As to the kind of experiment: Antiviral activity against HIV1 K103N-Y181C mutant in MT4 cell line. The format is functional, organism-based. To be noted: Human immunodeficiency virus 1, MT4.
Test [5] relates to Human immunodeficiency virus 1. As to the kind of experiment: Antiviral activity against HIV1 Y181C mutant in MT4 cell line. It counts as functional, organism-based. To be noted: Human immunodeficiency virus 1, MT4.
Test [6] concerns Human immunodeficiency virus 1. As to the kind of experiment: Antiviral activity against HIV1 in C8166 cell line. It counts as functional, organism-based. To be noted: Human immunodeficiency virus 1, C8166.
Test [7] has as its system C8166. As to the kind of experiment: Selectivity index, TC50 for C8166 cell line/EC50 for HIV1. The format is functional.
Test [8] deals with MT4. Briefly: Cytotoxicity against MT4 cell line by MTT assay. It counts as functional. The note with it: Homo sapiens, read-out: TC50 (the source's name). A general note: Tetrazolium assays rely on reduction of a dye to a coloured formazan, in cell work by metabolically active cells.
Test [9] relates to Human immunodeficiency virus 1. As to the kind of experiment: Activity against HIV1 3B assessed by inhibition of p24 production in human lymphocytes. To be noted: Human immunodeficiency virus 1, 3B. The format is functional, organism-based.
Test [10] concerns Macrophage. Briefly: Selectivity index, TC50 for human macrophages/EC50 for HIV1 […]. It counts as functional.
Test [11] concerns Human immunodeficiency virus 1. Briefly: Antiviral activity against HIV1 3B in MT4 cell line. It counts as functional, organism-based. To be noted: Human immunodeficiency virus 1, 3B.
The test system of test [12] is C8166. As to the kind of experiment: Antiproliferative activity against C8166 cell line by MTT assay. It counts as functional. To be noted: Homo sapiens, read-out: TC50 (the source's name).
Test [13] concerns Human immunodeficiency virus 1. Briefly: Antiviral activity against HIV1 in MT4 cell line. The note with it: Human immunodeficiency virus 1, MT4. It counts as functional, organism-based.
Test [14] has as its system MT4. Briefly: Selectivity index, TC50 for MT4 cell line/EC50 for HIV1. The format is functional.
Test [15] concerns Lymphocyte. Briefly: Selectivity index, TC50 for human lymphocytes/EC50 for HIV1 3B. It counts as functional.
The subject of test [16] is Macrophage. As to the kind of experiment: Cytotoxicity against human macrophages. To be noted: read-out: TC50 (the source's name). It counts as functional.
For test [17], the system named is Lymphocyte. As to the kind of experiment: Selectivity index, TC50 for human lymphocytes/EC50 for HIV-112. The format is functional.
In test [18] the test system is Lymphocyte. As to the kind of experiment: Selectivity index, TC50 for human lymphocytes/EC50 for HIV-AB1. It counts as functional.
Test [19] concerns Lymphocyte. Briefly: Cytotoxicity against human lymphocytes. It counts as functional. To be noted: read-out: TC50 (the source's name).

As to `CC(=O)NNC(=O)c1[nH]c2ccc(Cl)cc2c1S(=O)(=O)c1cc(C)cc(C)c1`, the 50% effective concentration (EC50) in [1] is 10 nM; in test [2] it was 8 nM; in [3], 8 nM; in test [4] it was more than 20000 nM; in test [5], 20 nM; in test [6], 7 nM. The EC50 in test [9] was 10 nM; in test [11], 5 nM; in test [13] (read-out: EC50), 5 nM; in test [13] (read-out: Log EC50 (converted)) it was 5 nM. Also, the Selectivity index is on record as more than 14285 in the test on C8166 [7]; more than 12500 in the test on Macrophage [10]; more than 20000 in the test with MT4 [14]; more than 10000 with Lymphocyte [15]; more than 12500 with Lymphocyte [17]; more than 10000 in the test with Lymphocyte [18]. The CC50 in the test with MT4 [8], in the test with C8166 [12], in the test on Macrophage [16] and in the test on Lymphocyte [19] was more than 100000 nM throughout.
On to `Cc1cc(C)cc(S(=O)(=O)c2c(C(=O)NN3CCOC3=O)[nH]c3ccc(Cl)cc23)c1`, for which the 50% effective concentration (EC50) stood at 20 nM in test [1]; 30 nM in test [3]; 900 nM in test [4]; 10 nM in test [5]; 3 nM in test [6]; 10 nM in test [9]. In addition, the EC50 in test [11] was 1 nM; in test [13] (read-out: EC50) it was 0.9 nM; in [13] (read-out: Log EC50 (converted)) it was 0.899 nM. The Selectivity index in the test on C8166 [7] was more than 33333; in the test on Macrophage [10] it was more than 50000; in the test on MT4 [14], 111111; in the test with Lymphocyte [15] it was more than 10000; in the test on Lymphocyte [17], more than 3333; in the test with Lymphocyte [18], more than 5000. The CC50 with MT4 [8] was 100000 nM; with C8166 [12], more than 100000 nM; in the test on Macrophage [16], more than 100000 nM; in the test on Lymphocyte [19], more than 100000 nM.
`CCOC(=O)NNC(=O)c1[nH]c2ccc(Cl)cc2c1S(=O)(=O)c1cc(C)cc(C)c1`: the EC50 amounted to 20 nM in test [1]; 6 nM in [2]; 30 nM in test [3]; 9200 nM in [4]; 40 nM in test [5]; 50 nM in [6]. The EC50 in test [9], in test [11], in test [13] (read-out: EC50) and in test [13] (read-out: Log EC50 (converted)) was 20 nM in each case. Moreover, the Selectivity index is more than 2000 with C8166 [7]; more than 16666 with Macrophage [10]; 5000 with MT4 [14]; more than 5000 with Lymphocyte [15]; more than 3333 with Lymphocyte [17]; more than 5000 in the test on Lymphocyte [18]. Besides, the CC50 with MT4 [8] is 100000 nM; in the test on C8166 [12], more than 100000 nM; in the test on Macrophage [16] it was more than 100000 nM; with Lymphocyte [19], more than 100000 nM.
With `CNNC(=O)c1[nH]c2ccc(Cl)cc2c1S(=O)(=O)c1cc(C)cc(C)c1`, the EC50 in [1] was 20 nM; in [2], 30 nM; in [3], 40 nM; in test [4], more than 20000 nM; in [5], 130 nM; in test [6], 30 nM. The concentration giving a half-maximal response (EC50) in [9] is 20 nM; in test [11] it was 50 nM; in [13] (read-out: EC50), 20 nM; in test [13] (read-out: Log EC50 (converted)), 20 nM. Besides, the Selectivity index in the test with C8166 [7] is reported as more than 3333; with Macrophage [10] it was more than 3333; in the test with MT4 [14], more than 5000; with Lymphocyte [15], more than 5000; with Lymphocyte [17] it was more than 2500; in the test with Lymphocyte [18], more than 5000. The CC50 in the test with MT4 [8], with C8166 [12], in the test on Macrophage [16] and with Lymphocyte [19] was more than 100000 nM throughout.
Consider `Cc1cc(C)cc(S(=O)(=O)c2c(C(=O)NNC(C)C)[nH]c3ccc(Cl)cc23)c1`, for which the EC50 in test [1] is 8 nM; in test [2] it was 5 nM; in test [3] it was 6 nM; in test [4] it was 8600 nM; in test [5], 40 nM; in test [6] it was 3 nM. Moreover, the EC50 in test [9] is 8 nM; in test [11], 0.7 nM; in test [13] (read-out: EC50), 0.7 nM; in [13] (read-out: Log EC50 (converted)), 0.7 nM. In addition, the Selectivity index in the test on C8166 [7] was more than 33333; in the test on Macrophage [10], more than 20000; in the test on MT4 [14], more than 142857; in the test on Lymphocyte [15], more than 12500; in the test with Lymphocyte [17], more than 16666; with Lymphocyte [18], more than 12500. The CC50 in the test on MT4 [8], in the test with C8166 [12], in the test on Macrophage [16] and in the test on Lymphocyte [19] was more than 100000 nM each time.
On to `Cc1cc(C)cc(S(=O)(=O)c2c(C(=O)NNC3CCCCC3)[nH]c3ccc(Cl)cc23)c1`, for which the EC50 in test [1] is 900 nM; in test [2], 200 nM; in [3], 1000 nM; in test [4], more than 20000 nM; in [5], 1200 nM; in test [6], 80 nM. For the same compound, the 50% effective concentration (EC50) is 800 nM in test [9], 100 nM in [11], 50 nM in test [13] (read-out: EC50) and 50 nM in [13] (read-out: Log EC50 (converted)). Further, the Selectivity index was more than 1250 in the test with C8166 [7]; more than 500 in the test with Macrophage [10]; more than 2000 with MT4 [14]; more than 125 with Lymphocyte [15]; more than 100 in the test on Lymphocyte [17]; more than 111 in the test on Lymphocyte [18]. For the same compound, the CC50 in the test on MT4 [8], in the test on C8166 [12], in the test on Macrophage [16] and in the test on Lymphocyte [19] was more than 100000 nM each time.
As for `Cc1ccnc2c1NC(=O)c1cccnc1N2C1CC1` [NEVIRAPINE], the half-maximal effective concentration (EC50) in [1] was more than 20000 nM; in test [3], more than 20000 nM; in [9], 90 nM; in test [11], 370 nM. Further, in the test on Lymphocyte [15], the Selectivity index is more than 1111. In addition, the CC50 in the test with Lymphocyte [19] is more than 100000 nM.
On to `O=C(NN1CCOC1=O)c1[nH]c2ccc(Cl)cc2c1S(=O)(=O)c1ccccc1`, for which the concentration giving a half-maximal response (EC50) in test [1] is 500 nM; in test [2] it was 60 nM; in test [3], 400 nM; in test [4], more than 20000 nM; in [5], 300 nM; in test [6] it was 20 nM. The concentration for a half-maximal effect (EC50) is 100 nM in test [9], 15 nM in [11], 15 nM in test [13] (read-out: EC50) and 15 nM in test [13] (read-out: Log EC50 (converted)). The Selectivity index with C8166 [7] is listed as more than 5000; in the test with Macrophage [10] it was more than 1666; in the test on MT4 [14], more than 6666; in the test with Lymphocyte [15], more than 1000; in the test with Lymphocyte [17] it was more than 250; in the test with Lymphocyte [18] it was more than 200. The CC50 in the test on MT4 [8], in the test with C8166 [12], in the test with Macrophage [16] and in the test with Lymphocyte [19] was more than 100000 nM throughout.
